{"source": "patent US4745177A", "about": "“Desulfatohirudins, the preparation thereof and pharmaceutical compositions containing them” (Ciba-Geigy Corporation, priority 1983, dated 1988)", "key": {"[1]": {"test_system": "other proteinases of the clotting cascade", "conditions": "completely specific for thrombin; cited from earlier work"}, "[2]": {"conditions": "unusually high doses given to dogs; cited from earlier work"}, "[3]": {"test_system": "experimental thrombosis (stasis or thrombin injection), endotoxin shock, DIC", "conditions": "cited from earlier work"}, "[4]": {"target": "T1, thrombin (Homo sapiens, UniProt P00734)", "test": "inhibition of thrombin with chromogenic substrate Chromozym TH", "format": "biochemical", "conditions": "starting material of Example 1", "description": "The biological activity is determined from the inhibition of thrombin, whose enzymatic activity is in turn determined using the chromogenic substrate Chromozym TH (a product of Boehringer, Mannheim, West Germany, for thrombin and hirudin determination) in accordance with known directions supplied with the test preparation."}, "[5]": {"target": "T1, thrombin", "conditions": "thrombin inhibitor; cited from earlier work"}}}
{"substance": "Hirudin", "values": [{"measurement": "inhibition of other proteinases of the clotting cascade", "setting": "[1]", "result": "does not inhibit"}, {"measurement": "effect on heart rate, respiration, blood pressure, thrombocytes, fibrinogen and haemoglobin", "setting": "[2]", "result": "No effect"}, {"measurement": "efficacy in experimental thrombosis, endotoxin shock and DIC", "setting": "[3]; rats, pigs, dogs, thrombosis induced by stasis or thrombin injection", "result": "proved effective"}, {"measurement": "direct comparison with heparin", "setting": "[3]; whenever direct comparison tests were carried out", "result": "superior to heparin"}, {"measurement": "activity (inhibition of thrombin)", "setting": "[4]", "result": 630, "unit": "IU/mg"}, {"measurement": "Ki", "setting": "[5]", "result": "~0.06", "unit": "nM"}]}
